{"source": "patent US20210187106A1", "about": "“COMBINATION OF LIF INHIBITORS AND PLATINUM-BASED ANTINEOPLASTIC AGENTS FOR USE IN TREATING CANCER” (MEDIMMUNE LIMITED, priority 2018, published 2021)", "key": {"CT26 tumors [1]": {"test_system": "CT26 tumors", "test": "Subcutaneous implanted CT26 model, h5D8 combined with cisplatin, doxorubicin or paclitaxel", "type": "in vivo, mouse", "settings": "individual BALB/c mice, h5D8 15 mg/kg twice a week, cisplatin 10 mg/kg once a week, paclitaxel 15 mg/kg twice a week, doxorubicin 4 mg/kg once a week"}, "CT26 tumors [2]": {"test_system": "CT26 tumors", "test": "Subcutaneous colon CT26 syngeneic tumor model in mice", "type": "in vivo, mouse", "settings": "FIG. 10E", "protocol": "CT26 cells were cultured in Roswell Park Memorial Institute medium (RPMI [Gibco, Invitrogen]), supplemented with 10% Fetal Bovine Serum (FBS), 40 U/mL penicillin and 40 μg/mL streptomycin (PenStrep) and 0.25 μg/mL Plasmocin.\nCT26 cells (8×10^5)were trypsinized, rinsed with PBS, centrifuged at 400 g for 5 minutes and resuspended in 100 μL PBS. Cells were kept on ice to avoid cell death. The CT26 cells were administered to mice via subcutaneous injection using a 27G needle.\n300 μg r5D8, or vehicle control, was administered to the mice via intraperitoneal injection (IP) twice weekly from day 3 post CT26 cell implant.\nBody weight and tumor volumes were measured three times per week. Tumor volume was measured using a caliper (Fisher Scientific)."}, "human U251 GBM cells": {"test_system": "human U251 GBM cells", "test": "Orthotopic GBM tumor model with luciferase expressing U251 cells in mice", "type": "in vivo", "settings": "200 μg or 300 μg twice a week, FIG. 7B", "protocol": "Results of this study are shown in FIG. 7A (quantitation at day 26 post treatment). […] Tumor size was determined by bioluminescence (Xenogen IVIS Spectrum) on day 7. […] Statistical significance was calculated using the unpaired non-parametric Mann-Whitney U-test.\nU251 cells stably expressing luciferase were harvested, washed in PBS, centrifuged at 400 g for 5 min, resuspended in PBS and counted with an automated cell counter (Countess, Invitrogen). Cells were kept on ice to maintain optimal viability. Mice were anaesthetized with intraperitoneal administration of Ketamine (Ketolar50®)/Xylacine (Rompún®) (75 mg/kg and 10 mg/kg respectively). Each mouse was carefully placed in the stereotactic device and immobilized. […]\nBody weight and tumor volume: Body weight was measured 2 times/week and tumor growth was quantified by bioluminescence on day 7 (Xenogen IVIS Spectrum). To quantify bioluminescence activity in vivo, mice were anaesthetized using isofluorane, and injected intraperitoneally with luciferin substrate (PerkinElmer) ([…]).\nTumor size as determined by bioluminescence (Xenogen IVIS Spectrum) was evaluated at day 7. The individual tumor measurements and mean±SEM for each treatment group were calculated. Statistical significance was determined by the unpaired non-parametric Mann-Whitney U-test."}, "[3]": {"test_system": "CCL22 and CD206 (MRC1) expression in patient samples", "test": "Human organotypic tissue slice culture model, M2 macrophage markers", "type": "cell-based", "settings": "three patient samples, FIG. 10B"}, "[4]": {"test_system": "KLN205 non-small cell lung cancer (NSCLC) cells", "test": "Orthotopic syngeneic mouse model of non-small cell lung carcinoma (KLN205)", "type": "in vivo", "settings": "DBA/2 mice, 15 mg/kg or 30 mg/kg intraperitoneally twice a week, versus vehicle", "protocol": "To determine the ability of the humanized 5D8 clone to inhibit a LIF positive cancer in vivo this antibody was tested in a mouse model of non-small cell lung carcinoma (NSCLC).\nThe murine non-small cell lung cancer (NSCLC) cell line KLN205 with high LIF levels was stably infected with lentivirus expressing the firefly luciferase gene for in vivo bioluminescence monitoring. To develop the mouse model, 5×10^5KLN205 non-small cell lung cancer (NSCLC) cells were orthotopically implanted into the left lung of 8-week-old immunocompetent syngeneic DBA/2 mice by intercostal puncture. […] For the bioluminescence imaging, mice received an intraperitoneal injection of 0.2 mL of 15 mg/mL D-luciferin under 1-2% inhaled isoflurane anesthesia. The bioluminescence signals were monitored using the IVIS system 2000 series (Xenogen Corp., Alameda, Calif., USA) consisting of a highly sensitive cooled CCD camera. Living Image software (Xenogen Corp.) was used to grid the imaging data and integrate the total bioluminescence signals in each boxed region. Data were analyzed using the total photon flux emission (photons/second) in the regions of interest (ROI). […] Data are presented as mean±SEM."}, "ID8 cells": {"test_system": "ID8 cells", "test": "Ovarian orthotopic syngeneic tumor model ID8 in mice", "type": "in vivo", "settings": "200 μg/mouse and above twice weekly, FIG. 8C", "protocol": "The efficacy of r5D8 was evaluated in two other syngeneic tumor models.\nID8 cells were cultured in Dulbecco's Modified Eagle Medium (DMEM) (Gibco, Invitrogen), supplemented with 10% Fetal Bovine Serum (FBS) (Gibco, Invitrogen), 40 U/mL Penicillin and 40 μg/mL Streptomycin (PenStrep) (Gibco, Invitrogen) and 0.25 μg/mL Plasmocin (Invivogen).\nThe ID8 cells were harvested, washed in PBS, centrifuged at 400 g for 5 min and resuspended in PBS. Cells were kept on ice to maintain optimal viability and 200 μL of the cell suspension was injected intraperitoneally with a 27G needle. The final cell number implanted into mice was 5×10^6.\nMice were treated twice weekly with h5D8 administered ip at different doses as indicated. Body weights were measured 2 times/week and tumor progression was monitored by measuring abdominal girth using a caliper (Fisher Scientific)."}, "[5]": {"test_system": "LIF-induced STAT3 phosphorylation in U251 glioma cells", "test": "Inhibition of LIF-induced STAT3 phosphorylation (Tyr705) by western blot, 5D8 humanization panel", "type": "cell-based, human", "settings": "serum starved, antibody 10 μg/ml over night", "protocol": "One clone from the rat immunization (5D8) was chosen for subsequent humanization. Humanization was conducted using standard CDR grafting methods. The heavy chain and light chain regions were cloned from the 5D8 hybridoma using standard molecular cloning techniques and sequenced by the Sanger method. A BLAST search was then conducted against human heavy chain and light chain variable sequences and 4 sequences from each were chosen as acceptor frameworks for humanization. These acceptor frameworks were deimmunized to remove T cell response epitopes. The heavy chain and light chain CDR1, CDR2 and CDR3 of 5D8 were cloned into the 4 different heavy chain acceptor frameworks (H1 to H4), and 4 different light chain frameworks (L1 to L4). Then all 16 different antibodies were tested for: expression in CHO-S cells (Selexis); inhibition of LIF-induced STAT3 phosphorylation; and binding affinity by Surface Plasmon Resonance (SPR). These experiments are summarized in\nInhibition of LIF-induced STAT3 phosphorylation at tyrosine 705 was determined by western blot. […] After treatment, proteins were obtained in radio-immunoprecipitation assay (RIPA) lysis buffer containing phosphatase and protease inhibitors, quantified (BCA-protein assay, Thermo Fisher Scientific) and used in western blot. […] Proteins were detected by chemiluminescence (SuperSignal Substrate, catalog #34076, Thermo Fisher Scientific). […]"}, "[6]": {"test_system": "STAT3 phosphorylation (Tyr 705) in U251 glioma cells", "test": "Inhibition of STAT3 phosphorylation in glioma cell culture model of LIF activation, western blot", "type": "cell-based, human", "settings": "10 μg/ml over night, FIG. 2A", "protocol": "U251 glioma cells were plated in 6-well plates at a density of 150,000 cells/well. Cells were cultured in complete medium for 24 hours before any treatment.\nAfter treatment, proteins were obtained in radio-immunoprecipitation assay (RIPA) lysis buffer containing phosphatase and protease inhibitors, quantified (BCA-protein assay, Thermo Fisher Scientific) and used in western blot. For western blot, membranes were blocked for 1 hour in 5% non-fatty milk—TBST and incubated with the primary antibody overnight (p-STAT3, catalog #9145, Cell Signaling or STAT3, catalog #9132, Cell Signaling) or 30 minutes (β-actin-peroxidase, catalog #A3854, Sigma-Aldrich). Membranes were then washed with TBST, incubated with secondary antibody if necessary, and washed again. Proteins were detected by chemiluminescence (SuperSignal Substrate, catalog #34076, Thermo Fisher Scientific)."}}, "note": "Several values for one entry are separate records, joined by “and”; a condition that tells them apart may be missing. Equal values may be shown once. Entries after “also recorded” stand apart in the source; their conditions may differ.", "data": [{"molecule": "N.N.[Cl][Pt][Cl]", "note": "[Cisplatin, cis-diamminedichloridoplatinum(II)]", "values": [{"measurement": "Tumor Volumes at Endpoint (Day 21)", "setting": "CT26 tumors [1]", "value": "328.5 mm^3 and 1279.7 mm^3 and 689.4 mm^3 and 512.3 mm^3 and 193.9 mm^3 and 997.5 mm^3 and 257.9 mm^3 and 924.4 mm^3 and 744.2 mm^3 and 1313.6 mm^3 and 676.0 mm^3 and 953.8 mm^3"}]}, {"molecule": "COc1cccc2c1C(=O)c1c(O)c3c(c(O)c1C2=O)C[C@@](O)(C(=O)CO)C[C@@H]3O[C@H]1C[C@H](N)[C@H](O)[C@H](C)O1", "note": "[Doxorubicin]", "values": [{"measurement": "Tumor Volumes at Endpoint (Day 21)", "setting": "CT26 tumors [1]", "value": "408.7 mm^3 and 1207.4 mm^3 and 94.2 mm^3 and 109.1 mm^3 and 294.9 mm^3 and 780.2 mm^3 and 351.2 mm^3 and 735.2 mm^3 and 48.9 mm^3 and 463.9 mm^3 and 588.8 mm^3 and 230.3 mm^3"}]}, {"molecule": "CC(=O)O[C@H]1C(=O)[C@@]2(C)[C@H]([C@H](OC(=O)c3ccccc3)[C@]3(O)C[C@H](OC(=O)[C@H](O)[C@@H](NC(=O)c4ccccc4)c4ccccc4)C(C)=C1C3(C)C)[C@]1(OC(C)=O)CO[C@@H]1C[C@@H]2O", "note": "[Paclitaxel]", "values": [{"measurement": "Tumor Volumes at Endpoint (Day 21)", "setting": "CT26 tumors [1]", "value": "651.8 mm^3 and 214.0 mm^3 and 461.5 mm^3 and 698.3 mm^3 and 457.7 mm^3 and 256.2 mm^3 and 592.2 mm^3 and 435.9 mm^3 and 762.1 mm^3 and 1236.2 mm^3 and 112.9 mm^3"}]}, {"molecule": "h5D8: humanized (CDR grafted) version of rat anti-LIF antibody 5D8, H2 heavy and L2 light chain; VH SEQ ID NO: 42, VL SEQ ID NO: 46", "values": [{"measurement": "Tumor Volumes at Endpoint (Day 21)", "setting": "CT26 tumors [1]", "value": "656.8 mm^3 and 1354.4 mm^3 and 1190.7 mm^3 and 1109.1 mm^3 and 906.6 mm^3 and 640.3 mm^3 and 0.0 mm^3 and 956.9 mm^3 and 318.7 mm^3 and 253.6 mm^3 and 1408.5 mm^3 and 508.3 mm^3"}, {"measurement": "inflammatory phenotype of tumor associated macrophages (TAMs)", "setting": "CT26 tumors [2]; 15 mg/kg, 2 QW, day 25 (endpoint)", "value": "polarized towards the M1 pro-inflammatory phenotype"}, {"measurement": "macrophages with an M1 phenotype (CD206 negative/MHCII positive fraction)", "setting": "CT26 tumors [2]; syngeneic CT26 tumor model", "value": "increased"}, {"measurement": "macrophages with an M2 phenotype (CD206 positive/MHCII negative fraction)", "setting": "CT26 tumors [2]; syngeneic CT26 tumor model", "value": "decreased"}, {"measurement": "tumor size by bioluminescence on day 7", "setting": "human U251 GBM cells", "value": "statistically significant reduction in tumor"}, {"measurement": "CCL22 and CD206 (MRC1) expression", "setting": "[3]", "value": "significant decrease"}, {"measurement": "tumor growth by bioluminescence", "setting": "[4]", "value": "promote tumor regression"}, {"measurement": "tumor growth by bioluminescence", "setting": "[4]; listed as humanized 5D8", "value": "reduced tumor growth"}, {"measurement": "tumor volume / tumor growth", "setting": "ID8 cells", "value": "reduced tumor volume; also recorded: significant reduction in tumor growth"}, {"measurement": "Inhibition of LIF-induced STAT3 phosphorylation (FIG. 1, in words)", "setting": "[5]", "value": "high"}, {"measurement": "inhibition of STAT3 phosphorylation (Tyr 705) versus parental antibody", "setting": "[6]", "value": "increased inhibition"}]}]}
